Data published in patent US10238676B2, “Application of ginsenoside RG3 in preparing medicine for preventing and/or treating dementia, and medicine for treating dementia” (priority 2013, dated 2019).

Key:
rat blood-brain barrier = conditions: rats drenched with borneolum syntheticum paraffin oil solution; cited from earlier work
[1] = system: intracerebral cholinergic nerve system of rat model with Alzheimer's disease; experiment: AChE positive nerve fiber density of cortex and hippocampal formation, rat model with Alzheimer's disease (D-galactose + IBO); format: in vivo, Wistar rats; conditions: AD model rats, Huperzine A 0.3 mg/kg/d, 6 weeks
Source text: 60 Wistar rats each of which having the body weight of 300-500 g are randomly divided into 6 groups, with 10 in each group, and the groups are named a preliminary elder normal control group, a preliminary elder AD model group, a positive medicine Huperzine A group, and high-dose, medium-dose and low-dose of Ginsenoside Rg3 topical preparation groups according to different treatment methods, respectively. The rats are bred in separate cages, each holding 4-5 rats, with natural lighting and random drinking and feeding provided. Physiological saline is injected in the abdominal cavity and grain of each rat in the preliminary elder normal control group; Galactose intraperitoneal injection and IBO intracerebral injection are given to all rats in the preliminary elder AD model group, the positive medicine Huperzine A group, and the high-dose, medium-dose and low-dose Ginsenoside Rg3 topical preparation groups; while the rats in the Huperzine A group and the high-dose, medium-dose and low-dose of Ginsenoside Rg3 topical preparation groups are subjected to D-galactose injection for modeling, rat of each group is given Huperzine A 0.3 mg/kg/d and Ginsenoside Rg3 10, 5, 2.5 mg/kg/d respectively. Ginsenoside Rg3 is applied to both sides of the nose of each rat of Ginsenoside Rg3 topical preparation groups. All the rats are subjected to the medicines continuously for 6 weeks and then intracerebral bilateral Meynert nuclei injection is carried out. Reference is made to a rat cerebral stereotaxic atlas for Meynert nuclei localization, and localization coordinates are AP-0.8 mm, Late 2.6 mm and DV 8.2 mm During intracerebral injection, a rat is anesthetized with 3% pentobarbital sodium (30 mg/kg) and then immobilized to a cerebral stereotaxic apparatus, physiological saline dissolved IBO (injection 1 μl for each side containing 5 μg of IBO) or 1 μl normal saline is injected slowly into a Meynert nucleus, each side takes injection for 5 minutes, and needle retaining for 10 minutes, wherein all the rats are subjected to cerebral perfusion with 4% paraformaldehyde after modeling and are then immobilized for 24 hours, and the brain is put in a sucrose phosphate buffer until brain tissue blocks sink, the blocks are frozen in a incubator and serially sectioned to […] in thickness. The sections are subjected to acetycholinesterase (AChE) histochemical staining by methods recommended by Hedreen, et al. Observation is given to the frontal lobe, the parietal lobe, the occipital lobe and the entorhinal cortex (layer II) as well as parts in a hippocampal CA1 region of the hippocampal formation such as a stratum oriens, a stratum radiatum, a stratum lacunosum-moleculare and a stratum moleculare of dentate gyrus for observing their AChE positive nerve fiber densities, and the AChE positive nerve fiber densities are counted with a number of intersections of positive fibers with a standard grid by using a micrometer used for a microscope.
A significance level a is equal to 0.05.

[2] = system: patients with Alzheimer's disease; experiment: Revised Hasegawa dementia scale (HDS-R) scoring of patients with Alzheimer's disease; format: in vivo, human
Protocol: Both groups take medicine for 12 continuous weeks. 2 ml of cerebrospinal fluid is collected by lumbar puncture, and is stored at −80° C., the β-amyloid protein (Aβ) content is determined by using enzyme-linked immunosorbent assay (ELISA). A revised Hasegawa dementia scale (HDS-R) is used to score, and the scores before and after treatment are compared, increasing in scores means validness, and unchanging or decreasing in scores means invalidness. The enumeration data adopts χ^2 test, the comparison of measurement data adopts t-test, all data is processed by adopting SPSS12.0 statistical software.
Analysis on the clinical therapeutic effect of the two groups.

[3] = of 18 patients per group, 12 weeks

## CC1(C)C2CCC1(C)C(O)C2 (centres unmarked) [borneolum syntheticum]
Rat blood-brain barrier
  time after drench at which tight junction changes start: 4 h
  time at which tight junction changes reach peak: 8 h
  time at which tight junction returns to normal: 48 h

## C/C=C1\[C@H]2C=C(C)C[C@]1(N)c1ccc(=O)[nH]c1C2 [Huperzine, Huperzine A, reference compound]
[1]
  N Entorhinal cortex AchE positive nerve fiber density: 132.4 ± 19.2^# 10^2 · mm^−2
  N Frontal lobe AchE positive nerve fiber density: 122.1 ± 16.1^## 10^2 · mm^−2
  N Occipital lobe AchE positive nerve fiber density: 131.6 ± 9.0^Δ 10^2 · mm^−2
  Parietal lobe AchE positive nerve fiber density: 108.7 ± 15.8^##Δ 10^2 · mm^−2
[1]; hippocampal formation
  N Stratum lacunosum-moleculare AchE positive nerve fiber density: 83.3 ± 9.6 10^2 · mm^−2
  N Stratum moleculare of dentate gyrus AchE positive nerve fiber density: 120.0 ± 10.7^# 10^2 · mm^−2
  N Stratum oriens AchE positive nerve fiber density: 138.7 ± 20.1 10^2 · mm^−2
  N Stratum radiatum AchE positive nerve fiber density: 121.1 ± 15.2 10^2 · mm^−2

## COc1cc2c(cc1OC)C(=O)C(CC1CCN(Cc3ccccc3)CC1)C2 (centres unmarked) [Donepezil, donepezil, reference compound]
[2]; 18 AD patients per group, Rg3 oral liquid 10 mg/d or donepezil 5 mg/d, 12 weeks
  effective rate (patients increased in HDS-R scores): 72.2%
[2]; AD inpatients, n = 18, Rg3 oral liquid 10 mg/d or donepezil 5 mg/d orally, 12 weeks
  Scores of clinical symptom (HDS-R), post treatment: 17.3 ± 9.6
[2]; AD inpatients, n = 18 per group, baseline
  Scores of clinical symptom (HDS-R), before treatment: 13.5 ± 4.2^Δ
[2]; [3]
  number of patients constant in scores: 3
  number of patients decreased in scores: 2
  number of patients increased in scores of clinical symptom: 13
